From patent publication US20030068286A1, “Self-tanning compositions having improved coloration using 3,5-dimethoxy-4-hydroxybenzaldehyde and 1,3-dihydroxyacetone” (priority 2001, published 2003)

Assays:
skin = test: Skin coloration by the Maillard reaction (self-tanning) after application to the skin; assay type: in vivo; details: for coloration produced in the skin: applied to the skin, melanoidins in the upper layers of skin
Procedure: The secondary compound, 3,5-dimethoxy-4-hydroxybenzaldehyde, is applied to the skin along with DHA.
Over time, the chemical stability of unprotected DHA is reduced, producing undesirable chemical compounds such as methylglyoxal and formic acid. […] The Maillard reaction produced by the DHA take sup to 5 hours to produce melanoidins, or colored compounds, in the upper layers of the skin. By the time an undesirable coloration develops, the wearer is helpless to remove or adjust the coloration, and must wait until their upper layers of skin are shed in order to rid themselves of the off-color.
FIG. 1 illustrates the chemical structure of 3,5-dimethoxy-4-hydroxybenzaldehyde. Structurally, this compound is a vanillin, or a hydroxymethoxybenzaldehyde.

Water solubility = test: Water solubility
Excerpt: The 3,5-dimethoxy-4-hydroxybenzaldehyde, as a water-insoluble aldehyde, is chemically compatible with water-soluble DHA. The compounds exist in two separate phases of a cosmetic formulation, the water phase and the oil phase.

Structure (SMILES)	coloration produced in the skin (skin)	Maillard reaction rate relative to DHA (skin; compared with DHA, attributed to larger molecular size and longer penetration time into the skin)	water solubility (Water solubility)	coloration produced on the skin by degraded DHA (skin; degraded or "stale" DHA applied to the skin)	time of the Maillard reaction to produce melanoidins in the upper layers of the skin (skin; in vivo)
COc1cc(C=O)cc(OC)c1O [3,5-dimethoxy-4-hydroxybenzaldehyde]	olive-green	slightly slower	water-insoluble		
O=C(CO)CO [DHA, 1,3-dihydroxyacetone]	orange-brown			orange coloration	up to 5 hours
CCOc1cc(C=O)ccc1O [ethylvanillin]	do not produce similar coloration or any Maillard reaction mechanism				
COc1cccc(C=O)c1O [ortho-vanillin]	do not produce similar coloration or any Maillard reaction mechanism				
